The source of these data is patent EP1759703A1, “IMMUNISTIMULATIVE AND INTERFERONOGENOUS AGENT” (Akciju Sabiedriba "Olainfarm", priority 2004, dated 2006).

Where a name gives a salt, the structure may show the parent alone. Read-outs that look alike come from different tables or passages of the source.

The nature of data set [1]: Solubility (qualitative). It is filed as physicochemical.
The subject of data set [2] is mononuclear cells of peripheral blood (NK-cells). It is filed as cell-based, human. The following applies: IU of interferon antiviral activity as regards the virus of vesicular stomatitis.
The subject of data set [3] is natural killers (NK-cells). Description: NK-cell functional activity test (lysis of K-562 target cells, fluorescent tag). The format is cell-based. To be noted: Homo sapiens, ratio of treated to untreated NK-cells activity, read-out: Relative value of change of NK-activity over DMAAM compounds. The text has this: Immunostimulating activity. Determination of the effect of claimed compounds on functional activity of immunocomptent human cells.
Immunocompetent cells - natural killers (NK-cells) - relate to the system of natural human body resistance. Identification of the status of this immune system link gives important information about the state of the body immune status. To assess the state of this immune system link depending on the presence of studied compounds a functional test was used to determine the NK-cells capacity to expose to lysis the target cells of tumor myeloblast culture K-562, the identification of which was implemented using a fluorescent tag. NK-cells activity was identified in accordance with the number of the target cells K-562 "killed" by them which were evaluated based on the intensity of fluorescent glowing in the area characteristic for killed cells and against control results (i.e. when NK-cells are absent).
The influence level of the studied drugs on NK-cells activity was assessed based on the value of the NK-cells activity ratio when treated with these medications to the activity of untreated NK-cells in the lysis process of target cells of the test culture, line K-562.
To select medication doses and concentrations while studying their activity, their minimal toxic dose against target cells and mononuclear cells of peripheral blood was preliminarily measured.
This defines a considerable immunostimulating effect of offered substances.
In addition immunostimulating effect mainly occurs in polymeric compounds (PVASA - DMAAM, VA - VASA - DMAAM, VP - VASA - DMAAM), and with an increase of drug concentration their stimulating impact on NK-cells activity enhances. Table 1. Change of NK-cells activity over 3.5-dimethyl-1-adamantylamine.

Data set [4] deals with white mice of both sexes, line "Balb". In words: Acute toxicity, single oral administration, mice. It is filed as in vivo. The method, then: The toxicity level of claimed compounds was assessed according to a general index of acute toxicity - average fatal dose of LD50. The study was held with a single oral administration of the medication to white mice of both sexes, line "Balb", weight 18 - 20 g, and to white rats, line "Vistar", weight 130 - 250 g (female) and 225 - 370 g (male). The medications were administered to mice in the dose ranging from 25 to 1100 mg/kg, and to rats in the range of 480 - 2315 mg/kg.

As to `CC12CC3CC(C)(C1)CC(N)(C3)C2` [3.5-dimethyl-1-adamantylamine], the solubility in water entry in data set [1] is recorded as “insoluble in water”.

As for `CC12CC3CC(C)(C1)CC(N)(C3)C2` [HC - DMAAM, hydrochloride 3.5-dimethyl-1-adamantylamine], the entries for the “Interferon induction activity of NK-cells” value in data set [2] (concentration 2 mcg/ml (as calculated per DMAAM)), in data set [2] (concentration 10 mcg/ml (as calculated per DMAAM)) and in data set [2] (concentration 50 mcg/ml (as calculated per DMAAM)) were 5.77 IU/ml, 13.00 IU/ml and 14.46 IU/ml, respectively. Moreover, the fold induction at 2 µg/mL in data set [3] (K562, concentration 2 mcg/ml (as calculated per DMAAM)) was 1. For the same compound, the fold induction at 10 µg/mL in data set [3] (K562, concentration 10 mcg/ml (as calculated per DMAAM)) was 1.2. Besides, the fold induction at 50 µg/mL in data set [3] (K562, concentration 50 mcg/ml (as calculated per DMAAM)) was 1.6. Besides, the LD50 (in general, the dose expected to kill half of the subjects tested) in data set [4] was determined as 363 mg/kg.
